Assays:
[1] = test system: SRS-A generation in rats pleural exudate; test: Effects on SRS-A generation in pleural exudate in rat reversed passive Arthus pleurisy; format: in vivo
Description: Effects on Increased Vascular Permeability and Slow Reacting Substance of Anaphylaxis (SRS-A) Generation in Rat Reversed Passive Arthus Pleurisy
The rat reversed passive Arthus pleurisy was induced by the method of Yamamoto et al. Agents Actions, 5, 374-377 (1975)]. Rats were given 1 ml of saline containing 5 mg of egg albumin intravenously followed 0.2 ml of rabbit anti-agg albumin antiserum injected into the pleural cavity. Just after that, 0.5 ml of saline contained 1% Evans blue was administered intravenously to the rats. 30 Minutes later, the animals were killed by bleeding, and the pleural cavity was rinsed with 2 ml of saline. The concentrations of the dye in the pleural exudate and the peripheral blood were measured to calculate the volume of serum infiltrated into the pleural cavity. The vascular permeability (dye concentration in pleural cavity/dye concentration in peripheral blood) was expressed as μl serum/30 min. On the other hand, the amount of SRS-A generated in the pleural cavity was determined by the following procedures. 30 Minutes after induction of the pleurisy, the aminals were killed by bleeding and the pleural cavity was rinsed with 2 ml of saline. 9 Milliliter of cold absolute ethanol were immediately added to the rinsed solution. The mixture was allowed to stand at 4° C. for 30 min. After the mixture was centrifuged at 3000 r.p.m. for 10 min, the supernatant was concentrated by evaporation. The resulting residue was dissolved in 0.5 ml of saline. The amount of SRS-A generated was bioassayed using guinea pig ileum.

5-Lipoxygenase = target: T1, 5-Lipoxygenase (Rattus norvegicus, UniProt P12527); test: 5-Lipoxygenase inhibitory activity: 5-HETE production in RBL-1 cells (HPLC); format: cell-based, rat (RBL-1, rat basophilic leukemia cells); details: arachidonic acid + A 23187, 37° C., 20 minutes, read-out: 5-HETE production inhibiting effect (IC50)
T1 construct: endogenous in cells; host or cells: RBL-1 (rat basophilic leukemia cells)
T1 sequence (P12527 1-673): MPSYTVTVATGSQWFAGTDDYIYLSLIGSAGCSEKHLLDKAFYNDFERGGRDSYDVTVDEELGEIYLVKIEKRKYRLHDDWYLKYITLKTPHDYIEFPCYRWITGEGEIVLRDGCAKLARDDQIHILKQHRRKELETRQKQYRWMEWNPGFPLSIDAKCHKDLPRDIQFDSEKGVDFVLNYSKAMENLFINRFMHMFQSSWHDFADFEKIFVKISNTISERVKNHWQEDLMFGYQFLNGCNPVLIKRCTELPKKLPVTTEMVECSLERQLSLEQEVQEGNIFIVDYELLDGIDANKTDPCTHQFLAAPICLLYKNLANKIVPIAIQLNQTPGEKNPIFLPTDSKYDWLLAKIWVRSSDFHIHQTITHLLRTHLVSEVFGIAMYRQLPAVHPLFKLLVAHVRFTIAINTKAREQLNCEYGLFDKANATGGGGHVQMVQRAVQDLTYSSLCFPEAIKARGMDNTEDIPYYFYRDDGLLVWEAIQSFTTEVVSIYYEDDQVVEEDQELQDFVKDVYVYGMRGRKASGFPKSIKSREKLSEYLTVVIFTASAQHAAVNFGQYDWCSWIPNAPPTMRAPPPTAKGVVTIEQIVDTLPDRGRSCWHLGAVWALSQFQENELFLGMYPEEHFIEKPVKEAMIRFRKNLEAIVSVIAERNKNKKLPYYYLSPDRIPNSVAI
Description: 5-Lipoxygenase Inhibitory Activity
10^7 RBL-1 cells (rat basophilic leukemia cells) were suspended in 0.5 ml of MCM (mast cell medium), and test solutions (made up of 0.5 ml of MCM, 50 μg of arachidonic acid, 10 μg of A 23187 (calcium ionophore, Eli Lilly) and 1 μM, 0.1 μM, 0.01 μM and0.001 μM as the final concentration of the quinone compound, respectively) prepared previously were added respectively to the suspension, followed by reaction at 37° C. for 20 minutes. After the conclusion of the reaction, 4 ml of ethanol and 1,4-dimethoxy-2-methyl-3-(3-methoxypropyl)naphthalene as the internal reference drug were added to the reaction solution, and the mixture was shaken thoroughly and allowed to stand at room temperature for 10 minutes. Then, it was centrifuged (2000 r.p.m.) for 10 minutes, and the supernatant fluid was separated and concentrated to dryness under reduced pressure. 0.5 Milliliter of 60% aqueous methanol was added to the concentrate, and 100 μl of the resulting solution was taken and subjected to high-performance liquid chromatography to determine amount of 5-HETE (5-hydroxyeicosatetraenoic acid). Determination of 5-HETE was made through measurement of an absorption at 237 nm with a UV absorption monitor.
The 5-HETE production inhibitory effect (IE) was expressed by [formula] wherein a is a peak height or peak area corrected by the peak for the internal reference when the quinone compound is not contained; b is a peak height or peak area corrected by the peak for the internal reference when the quinone compound is contained.

[2] = test system: O2^- production in guinea pigs peritoneal macrophages; test: Inhibitory effect on O2- production in guinea pig peritoneal macrophages (chemiluminescence); format: cell-based, guinea pig (Hartley); details: Cavia porcellus, Peritoneal macrophage, 3 experiments; for inhibition at 100 µM: 10^-4 M; for inhibition at 10 µM: 10^-5 M; for inhibition at 1 µM: 10^-6 M
Description: Superoxide (O2^-) Production in Guinea Pig Peritoneal Macrophages
Male Hartley guinea pigs weighing 400-450 g were given intraperitoneally 5 ml of liquid paraffin. Four days later, 15 ml of Hank's buffer were administered into the peritoneal cavity for harvest of peritoneal cells. Macrophages in the peritoneal cells were purified by the method of Wood, P. R. [J. Immunol. Methods, 28, 117-124 (1979)].
The purity of macrophages was more than 95%. The reaction mixture contained 75 μl of macrophages (1×10^7 cells/ml), 5 μl of luminol, 10 μl of phorbol myristate acetate and 10 μl of drugs in a total volume of 100 μl. O2^- Product was assayed by chemiluminescence. Drugs were dissolved in a 10% dimethyl sulfoxide.

[3] = test system: experimental cerebral infarction model of Mongolian gerbils; test: Anti-edema action in an experimental cerebral infarction model of Mongolian gerbil; format: in vivo; details: oral, 1 hour before carotid ligation
Description: Anti-Edema Action in an Experimental Cerebral Infarction Model of Mongolian Gerbil
Male Monglian gerbils (8-10 weeks of age) were used. Under light ether anesthesia, the right common carotid artery was ligated for 1 hour to induce experimental cerebral infarction, and then reperfused on removing the ligature. One hour after reperfusion, the animal was guillotined, the brain was excised, and divided into the left and right brain hemispheres. The wet weight of each hemisphere was determined, and then the dry weight was determined after drying for 24 hours at 96° C. The water content (%) of each hemisphere was estimated according to the following equation. [formula] In addition, neurological deficit symptoms were observed during ligation-and-reperfusion periods.
Test drugs were orally administered as a gum arabic suspension 1 hour before the common carotid artery ligation under an unanesthetized condition. Results

mice of ICR breed = format: in vivo; details: 1000 mg/kg oral, male ICR mice, 7 days
Text: Acute Toxicity Test in Mice (Acute Toxicity)
1000 Milligrams per kilogram of each set specimen was applied orally to groups of 5 five-weeks old male mice of ICR breed, and a number of dead animals observed for the 7-days period was counted.

Structure (SMILES) | % Inhibition of SRS-A generation in pleural exudate ([1]; 0.1 mg/rat) [%] | % Inhibition of SRS-A generation in pleural exudate ([1]; 1 mg/rat) [%] | IC50 (5-Lipoxygenase) [µM] | inhibition at 100 µM [2] [%] | inhibition at 10 µM [2] [%] | inhibition at 1 µM [2] [%] | Incidence of appearance of neurological deficit symptoms ([3]; control 5/6) | Water content, normal side (left) ([3]; control 80.1 ± 0.3) [%] | Water content, infarct side (right) ([3]; control 81.3 ± 0.9) [%] | Acute toxicity (number of dead animals/number of animals used) (mice of ICR breed)
CC1=C(C)C(=O)C(C(CCCCCC(=O)O)c2ccccc2)=C(C)C1=O (stereo not shown) [Compound No. 50, 7-(3,5,6-trimethyl-1,4-benzoquinon-2-yl)-7-phenylheptanoic acid] | 49 | 77 | 0.028 | 88 ± 2 | 38 ± 3 | 16 ± 6 | 1/6 | 79.8 ± 1.0 | 80.3 ± 1.0 | –
CC1=C(C)C(=O)C(C(CCCCCC(=O)O)c2ccc(C)cc2)=C(C)C1=O (stereo not shown) [Compound No. 93] | -6 | 56 | 0.09 | 91 ± 3 | 33 ± 12 | 9 ± 6 | – | – | – | 0/5

Source: patent publication US5180742A, “Quinone derivatives, their production and use” (Takeda Chemical Industries, Ltd., priority 1984, dated 1993)
